PubChem BioAssay (NCI)
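Test compounds were applied to cells in 96-well plates for 48 hours at 5 doses. The concentration for full growth arrest is given as TGI.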

Assays:
Assay in all cases: DTP human tumour cell line panel, 48 h
DU-145 prostate = test system: DU-145 prostate
OVCAR-8 ovarian = test system: OVCAR-8 ovarian
ACHN renal = test system: ACHN renal
BT-549 breast = test system: BT-549 breast
SK-MEL-5 melanoma = test system: SK-MEL-5 melanoma
HL-60(TB) leukemia = test system: HL-60(TB) leukemia
NCI-H23 lung = test system: NCI-H23 lung
SF-295 CNS = test system: SF-295 CNS
SNB-19 CNS = test system: SNB-19 CNS
NCI-H460 lung = test system: NCI-H460 lung
HOP-62 NSCLC = test system: HOP-62 NSCLC
HOP-92 NSCLC = test system: HOP-92 NSCLC
K-562 leukemia = test system: K-562 leukemia
IGROV1 ovarian = test system: IGROV1 ovarian
SK-MEL-2 melanoma = test system: SK-MEL-2 melanoma
EKVX NSCLC = test system: EKVX NSCLC
A498 renal = test system: A498 renal
UO-31 renal = test system: UO-31 renal
MDA-MB-435 = test system: MDA-MB-435
SK-MEL-28 melanoma = test system: SK-MEL-28 melanoma
RPMI-8226 leukemia = test system: RPMI-8226 leukemia
KM12 colon = test system: KM12 colon
M14 melanoma = test system: M14 melanoma
786-0 renal = test system: 786-0 renal
SW-620 colon = test system: SW-620 colon
OVCAR-3 ovarian = test system: OVCAR-3 ovarian
OVCAR-5 ovarian = test system: OVCAR-5 ovarian
MALME-3M melanoma = test system: MALME-3M melanoma
HCT-15 colon = test system: HCT-15 colon
NCI-H226 lung = test system: NCI-H226 lung
MCF7 breast = test system: MCF7 breast
A549 NSCLC = test system: A549 NSCLC
HCT-116 colon = test system: HCT-116 colon
NCI-H522 lung = test system: NCI-H522 lung
CAKI-1 renal = test system: CAKI-1 renal
UACC-62 melanoma = test system: UACC-62 melanoma
SNB-75 CNS = test system: SNB-75 CNS
SR leukemia = test system: SR leukemia
HCC-2998 colon = test system: HCC-2998 colon
MDA-MB-231 breast = test system: MDA-MB-231 breast
OVCAR-4 ovarian = test system: OVCAR-4 ovarian
NCI/ADR-RES ovarian = test system: NCI/ADR-RES ovarian
SK-OV-3 ovarian = test system: SK-OV-3 ovarian
HT29 colon = test system: HT29 colon
SF-268 CNS = test system: SF-268 CNS
MDA-N = test system: MDA-N
U251 CNS = test system: U251 CNS
TK-10 renal = test system: TK-10 renal
HS 578T breast = test system: HS 578T breast
LOX IMVI melanoma = test system: LOX IMVI melanoma
MOLT-4 leukemia = test system: MOLT-4 leukemia
T-47D breast = test system: T-47D breast
CCRF-CEM leukemia = test system: CCRF-CEM leukemia
UACC-257 melanoma = test system: UACC-257 melanoma
RXF 393 renal = test system: RXF 393 renal
SN12C renal = test system: SN12C renal
PC-3 prostate = test system: PC-3 prostate
COLO 205 colon = test system: COLO 205 colon

CNC1=C(C)C(=O)C(=O)C([C@H](C)CCC=C(C)C)=C1O
TGI (DU-145 prostate): > 100 µM
TGI (OVCAR-8 ovarian): > 60.9 µM
TGI (ACHN renal): 39.4 µM
TGI (BT-549 breast): > 100 µM
TGI (SK-MEL-5 melanoma): 41.4 µM
TGI (HL-60(TB) leukemia): 6.88 µM
TGI (NCI-H23 lung): > 100 µM
TGI (SF-295 CNS): > 75.7 µM
TGI (SNB-19 CNS): > 100 µM
TGI (NCI-H460 lung): > 100 µM
TGI (HOP-62 NSCLC): > 31.6 µM
TGI (HOP-92 NSCLC): > 100 µM
TGI (K-562 leukemia): > 100 µM
TGI (IGROV1 ovarian): > 76.1 µM
TGI (SK-MEL-2 melanoma): 81.9 µM
TGI (EKVX NSCLC): > 100 µM
TGI (A498 renal): 62.3 µM
TGI (UO-31 renal): 49.7 µM
TGI (MDA-MB-435): > 100 µM
TGI (SK-MEL-28 melanoma): > 100 µM
TGI (RPMI-8226 leukemia): > 94.3 µM
TGI (KM12 colon): > 100 µM
TGI (M14 melanoma): > 100 µM
TGI (786-0 renal): > 95.3 µM
TGI (SW-620 colon): > 100 µM
TGI (OVCAR-3 ovarian): > 100 µM
TGI (OVCAR-5 ovarian): > 100 µM
TGI (MALME-3M melanoma): > 68.6 µM
TGI (HCT-15 colon): > 100 µM
TGI (NCI-H226 lung): > 72.9 µM
TGI (MCF7 breast): > 100 µM
TGI (A549 NSCLC): > 100 µM
TGI (HCT-116 colon): > 100 µM
TGI (NCI-H522 lung): 20.4 µM
TGI (CAKI-1 renal): 56.7 µM
TGI (UACC-62 melanoma): > 72.3 µM
TGI (SNB-75 CNS): > 94.4 µM
TGI (SR leukemia): 71 µM
TGI (HCC-2998 colon): 99.3 µM
TGI (MDA-MB-231 breast): > 100 µM
TGI (OVCAR-4 ovarian): > 77 µM
TGI (NCI/ADR-RES ovarian): > 38.4 µM
TGI (SK-OV-3 ovarian): 83.3 µM
TGI (HT29 colon): > 100 µM
TGI (SF-268 CNS): > 100 µM
TGI (MDA-N): > 100 µM
TGI (U251 CNS): > 100 µM
TGI (TK-10 renal): > 100 µM
TGI (HS 578T breast): > 91.8 µM
TGI (LOX IMVI melanoma): > 100 µM
TGI (MOLT-4 leukemia): > 48.5 µM
TGI (T-47D breast): 86.3 µM
TGI (CCRF-CEM leukemia): > 29.4 µM
TGI (UACC-257 melanoma): > 100 µM
TGI (RXF 393 renal): > 100 µM
TGI (SN12C renal): > 100 µM
TGI (PC-3 prostate): 98.7 µM
TGI (COLO 205 colon): > 73.7 µM
